Experimental data: paper PMC11191877, “Discovery of new Schiff bases of the disalicylic acid scaffold as DNA gyrase and topoisomerase IV inhibitors endowed with antibacterial properties” (Frontiers in Chemistry, 2024)
≈ marks a conversion by molar mass, not a printed value.

What was measured:
[1] = tested on: Mycobacterium tuberculosis H37Rv; set-up: method as in Souza et al., 2007; settings: ref Souza et al., 2007; cited from earlier work
J774 macrophages = tested on: J774 macrophages; set-up: method as in Souza et al., 2007; settings: ref Souza et al., 2007, cited from earlier work
Bacillus subtilis [2] = experiment: Modified Kirby-Bauer disc diffusion; format: cell-based; settings: Bacillus subtilis (G+)
Protocol: (§1) The antimicrobial activity of compounds 5a-k was assessed using a modified Kirby-Bauer disc diffusion method ([Alkhaldi et al., 2019]; [Al-Wahaibi et al., 2021b]; [Manso et al., 2021]; [Ecevit et al., 2022]). […] Ciprofloxacin was used as a reference medication. […] Compounds 5f-k had promising antibacterial action against Gram-positive and Gram-negative bacteria, ranging from 75% to 115% of typical ciprofloxacin levels. […]
(§2) incubated at 35-37 °C for 24-48 hours and yeast as Candida albicans (ATCC 7102) incubated at 30 °C for 24-48 hours and, then the diameters of the inhibition zones were measured in millimeters. Standard discs of ciprofloxacin (Antibacterial agent), Fluconazole (Antifungal agent) served as positive controls for antimicrobial activity but filter discs impregnated with 10 µl of solvent (distilled water, chloroform, DMSO) were used as a negative control. Blank paper disks (Schleicher & Schuell, Spain) with a diameter of 8.0 mm were impregnated 10µ of tested concentration of the stock solutions. When a filter paper disc impregnated with a tested chemical is placed on agar the chemical will diffuse from the disc into the agar. This diffusion will place the chemical in the agar only around the disc. The solubility of the chemical and its molecular size will determine the size of the area of chemical infiltration around the disc. If an organism is placed on the agar it will not grow in the area around the disc if it is susceptible to the chemical. This area of no growth around the disc is known as a “Zone of inhibition” or" Clear zone". For the disc diffusion, the zone diameters were measured with slipping calipers of the National Committee for Clinical Laboratory […]
(§3) Agar-based methods such as E-test and disk diffusion can be good alternatives because they are simpler and faster than broth-based methods. […]

Escherichia Coli [3] = experiment: Modified Kirby-Bauer disc diffusion; format: cell-based; settings: Escherichia Coli (G−)
Protocol: as §1, §2, §3

Pseudomonas aeruginosa [4] = experiment: Modified Kirby-Bauer disc diffusion; format: cell-based; settings: Pseudomonas aeruginosa (G−)
Protocol: as §1, §2, §3

Staph. aureus = experiment: Modified Kirby-Bauer disc diffusion; format: cell-based, Staphylococcus aureus; settings: Staph. aureus (G+)
Protocol: as §1, §2, §3

Aspergillus flavus = experiment: Modified Kirby-Bauer disc diffusion (antifungal); format: cell-based; settings: Aspergillus flavus (fungi)
Protocol: (§4) The antimicrobial activity of compounds 5a-k was assessed using a modified Kirby-Bauer disc diffusion method ([Alkhaldi et al., 2019]; [Al-Wahaibi et al., 2021b]; [Manso et al., 2021]; [Ecevit et al., 2022]). […] Ciprofloxacin was used as a reference medication. […] Compounds 5f-k had promising antibacterial action against Gram-positive and Gram-negative bacteria, ranging from 75% to 115% of typical ciprofloxacin levels.
(§5) In addition, the synthesized compounds 5a-k were evaluated for their antifungal activity against A. flavus and C. albicans, with Fluconazole as a reference medication (Table 1). […]
Standard discs of ciprofloxacin (Antibacterial agent), Fluconazole (Antifungal agent) served as positive controls for antimicrobial activity but filter discs impregnated with 10 µl of solvent (distilled water, chloroform, DMSO) were used as a negative control. Blank paper disks (Schleicher & Schuell, Spain) with a diameter of 8.0 mm were impregnated 10µ of tested concentration of the stock solutions. When a filter paper disc impregnated with a tested chemical is placed on agar the chemical will diffuse from the disc into the agar. This diffusion will place the chemical in the agar only around the disc. The solubility of the chemical and its molecular size will determine the size of the area of chemical infiltration around the disc. If an organism is placed on the agar it will not grow in the area around the disc if it is susceptible to the chemical. This area of no growth around the disc is known as a “Zone of inhibition” or" Clear zone". For the disc diffusion, the zone diameters were measured with slipping calipers of the National Committee for Clinical Laboratory […]
as §3

Candida albicans = experiment: Modified Kirby-Bauer disc diffusion (antifungal); format: cell-based
Protocol: as §4, §5, §2, §3

Bacillus subtilis [5] = experiment: MIC, twofold serial dilution, 96-well microtiter plate; format: cell-based; settings: Bacillus subtilis (G+)
Protocol: (§6) The antibacterial activity of compounds 5f, 5h, 5i, and 5k were evaluated using a twofold serial dilution method ([Parasa et al., 2011]), with ciprofloxacin as the reference compound. The MIC values for certain compounds were obtained through dose-response experiments. The stated values are based on a minimum of two independent experiments, with three replicates per concentration in each experiment. The experimental details can be found in Appendix A (Supplementary Material). […]
(§7) 4.2.2. Minimum inhibitory concentration assay
(§8) In 96-well microtiter plates and […] of fresh bacterial culture of a single McFarland unit overnight, a double serial dilution of each compound […] in sterile standard saline were prepared to every single source well. Ciprofloxacin antibiotic (5 mg / mL - 1) and normal saline were included as standard reference in each assay. The plates were incubated at 37 0C overnight. As an indicator of bacterial growth, […] of p-iodonitrotetrazolium violet (INT) was added to each well and incubated at 37 0C for 30 […]
(§9) min. MIC values are recorded as the lowest concentration of the extract that completely inhibited bacterial growth that is clear well. The colorless tetrazolidium salt acts as an electron accepter and is reduced to a red colored formazan product by biological activity organisms. Where bacterial growth was inhibited, the solution in the well remained clear after incubation with INT. […]
(§10) SybrGOLD in T10 buffer (10 mM Tris HCl with pH 8.0 and 1 mM EDTA) was added. […]

Escherichia Coli [6] = experiment: as above; format: cell-based; settings: Escherichia coli (G−)
Protocol: as §6, §7, §8, §9, §10

Pseudomonas aeruginosa [7] = experiment: as above; format: cell-based; settings: Pseudomonas aeruginosa (G−)
Protocol: as §6, §7, §8, §9, §10

Staphylococcus aureus = experiment: as above; format: cell-based; settings: Staphylococcus aureus (G+)
Protocol: as §6, §7, §8, §9, §10

E. coli DNA gyrase = target: T1, E. coli DNA gyrase (Escherichia coli, UniProt P0AES6); experiment: E. coli DNA gyrase supercoiling assay (Inspiralis kit); format: biochemical; settings: at 1 µM of the compound
T1 construct: purchased Inspiralis
Protocol: The fluorescence was measured with a microplate reader (BioTek Synergy H4,
(§11) NaCl and 50 mM MgCl2) was added to terminate the enzymatic reaction. After
(§12) Initial screening was done at 100 or 10 μM concentration

E. coli topoisomerase IV = target: T2, E. coli topoisomerase IV (Escherichia coli, UniProt P20083); experiment: E. coli topoisomerase IV inhibitory assay (Inspiralis kit); format: biochemical; settings: at 1 µM of the compound
T2 construct: purchased Inspiralis
T2 sequence (P20083 whole entry): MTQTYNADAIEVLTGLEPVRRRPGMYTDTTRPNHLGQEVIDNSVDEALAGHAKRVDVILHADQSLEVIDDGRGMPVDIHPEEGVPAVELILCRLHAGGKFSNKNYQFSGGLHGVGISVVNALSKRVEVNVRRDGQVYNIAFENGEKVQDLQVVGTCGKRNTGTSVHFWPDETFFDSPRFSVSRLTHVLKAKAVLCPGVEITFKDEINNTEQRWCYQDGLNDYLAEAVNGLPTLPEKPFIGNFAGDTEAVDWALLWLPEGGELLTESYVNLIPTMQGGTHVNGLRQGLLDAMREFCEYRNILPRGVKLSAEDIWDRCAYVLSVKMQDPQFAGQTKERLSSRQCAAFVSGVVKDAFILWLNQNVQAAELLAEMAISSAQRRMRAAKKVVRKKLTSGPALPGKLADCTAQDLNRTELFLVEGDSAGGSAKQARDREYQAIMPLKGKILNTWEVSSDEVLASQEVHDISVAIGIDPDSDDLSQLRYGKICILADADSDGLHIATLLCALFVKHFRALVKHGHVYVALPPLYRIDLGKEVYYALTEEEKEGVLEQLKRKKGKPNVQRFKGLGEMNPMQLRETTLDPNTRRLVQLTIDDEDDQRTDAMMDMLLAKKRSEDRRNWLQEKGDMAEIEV
T2 sequence (P0AFI2 whole entry, further chain): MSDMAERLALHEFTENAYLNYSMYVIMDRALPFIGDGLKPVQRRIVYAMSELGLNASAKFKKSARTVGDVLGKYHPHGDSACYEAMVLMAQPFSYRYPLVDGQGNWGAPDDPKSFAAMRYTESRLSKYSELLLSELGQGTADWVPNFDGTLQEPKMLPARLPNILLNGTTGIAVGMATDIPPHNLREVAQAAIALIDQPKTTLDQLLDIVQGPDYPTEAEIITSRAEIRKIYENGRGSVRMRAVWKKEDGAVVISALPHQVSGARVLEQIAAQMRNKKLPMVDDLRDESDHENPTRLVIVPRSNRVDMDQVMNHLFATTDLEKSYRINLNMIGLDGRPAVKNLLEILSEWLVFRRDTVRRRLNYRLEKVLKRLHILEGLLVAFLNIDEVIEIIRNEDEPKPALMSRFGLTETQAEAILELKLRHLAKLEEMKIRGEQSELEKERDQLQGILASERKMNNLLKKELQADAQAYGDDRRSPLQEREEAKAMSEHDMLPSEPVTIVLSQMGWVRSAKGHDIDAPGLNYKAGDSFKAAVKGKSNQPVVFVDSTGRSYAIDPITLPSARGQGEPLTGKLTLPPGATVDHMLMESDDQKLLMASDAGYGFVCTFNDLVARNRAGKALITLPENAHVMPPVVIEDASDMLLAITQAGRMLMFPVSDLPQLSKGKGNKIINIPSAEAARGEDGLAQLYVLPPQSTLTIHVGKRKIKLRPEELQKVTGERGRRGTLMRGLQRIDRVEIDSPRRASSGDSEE
Protocol: as §11, §12
A single compound was designated with four wells followed by incubation of
After incubation, medium was removed completely from the […]

Molecule | MIC [1] | cytotoxic effects on J774 macrophages (J774 macrophages; 1,000 μg/mL) | viable macrophage cells (J774 macrophages; J774 macrophages, 1,000 μg/mL) | Inhibition zone diameter (Bacillus subtilis [2]) | Inhibition zone diameter (Escherichia Coli [3]) | Inhibition zone diameter (Pseudomonas aeruginosa [4]) | Inhibition zone diameter (Staph. aureus) | Inhibition zone diameter (Aspergillus flavus) | activity as % of fluconazole (Candida albicans; C. albicans) | Inhibition zone diameter (Candida albicans; Candida albicans (fungi)) | Minimum inhibitory concentration (MIC) (Bacillus subtilis [5]) | Minimum inhibitory concentration (MIC) (Escherichia Coli [6]) | Minimum inhibitory concentration (MIC) (Pseudomonas aeruginosa [7]) | Minimum inhibitory concentration (MIC) (Staphylococcus aureus) | RA (residual activity of the enzyme) E. Coli DNA gyrase (E. coli DNA gyrase) | RA (residual activity of the enzyme) E. Coli Topo IV (E. coli topoisomerase IV)
Oc1ccccc1C=Nc1ccccc1O [I, N-(salicylidene)-2-hydroxyaniline] | 8 µg/mL (≈ 37.5 µM) | did not show cytotoxic effects | Over 80% | – | – | – | – | – | – | – | – | – | – | – | – | –
N'-((E)-4-Methylbenzylidene)-4-(4-(2-((Z)-4-methylbenzylidene)hydrazine-1-carbonyl)-3-hydroxybenzyl)-2-hydroxybenzohydrazide [Compound 5f] | – | – | – | 37 mm/mg Sample | 33 mm/mg Sample | 33 mm/mg Sample | 37 mm/mg Sample | 0.0 mm/mg Sample | 38% | 15 mm/mg Sample | 0.125 µg/mL | 0.125 µg/mL | 0.125 µg/mL | 0.070 µg/mL | 53% | 77%
